According to patent US12498382B2, “Biomarkers for vitiligo” (INCYTE CORPORATION, priority 2019, dated 2025):

Tested on: HaCaT cells
Assay: Normalized expression of target genes in HaCaT cells stimulated with TNFα and IFNγ in presence/absence of JAK inhibitors (QuantiGene Plex)
Type: cell-based, human
Description: Transformed human keratinocyte (HaCaT) cells were purchased from AddexBio (Catalog #T0020001) and cultured as outlined in Example 5. […] After 48 hours, cell culture media was removed from 24 well plates and replaced with 250 uL of media containing serial diluted drug, then incubated for 15 minutes at 37° C./5% CO2. After drug incubation, 250 uL of combinatory stimulation containing Recombinant Human Interferon gamma (R&D Systems, Catalog #285-IF-100) and Recombinant Human Tumor Necrosis Factor alpha (R&D Systems, Catalog #210-TA-020) was added to plates. The final concentration of Recombinant Human Interferon gamma and Recombinant Human Tumor Necrosis Factor alpha was 25 ng/mL of each cytokine. Cytokine stimulation added to wells containing drug brought the final concentrations for each drug treatment to 25 nM, 50 nM, 100 nM, and 200 nM. Treated plates were mixed by gentle agitation for 30 seconds then incubated for 24 hours at 37° C./5% CO2. At the end of the 24 hour incubation media was immediately removed from each plate.
RNA was isolated from HaCaT cells using the QuantiGene Plex Assay reagents and protocols (Affymetrix, Catalog #QGP-232-M18042302) according to the manufacturer's guidelines. Cells were washed with 1×DPBS then lysed by incubation with provided QuantiGene lysis buffer for 30 minutes at 50-55° C. Cell lysates were incubated for 18-24 hours at 55° C. with capture beads and probe set designed to specifically hybridize to mRNA from targets of interest. Genes included housekeeping genes (e.g., HPRT1 and GAPDH) used for the normalization of the results. After the 18-24 hour incubation signal was amplified utilizing branched DNA methodologies, according to the manufacturer's procedures (Affymetrix, Catalog #QGP-232-M18042302). After hybridization and wash steps assay plate was read on the Luminex 200 and data were expressed as Net Median Fluorescence Intensity. Data was then normalized to the Net Median Fluorescence Intensity of the housekeeping gene HPRT1 (Table 14).

[1] = TNFα+IFNγ 25 ng/mL, Drug Conc 25 nM
[2] = TNFα+IFNγ 25 ng/mL, Drug Conc 50 nM
[3] = TNFα+IFNγ 25 ng/mL, Drug Conc 100 nM
[4] = TNFα+IFNγ 25 ng/mL, Drug Conc 200 nM
[5] = no stimulation, Drug Conc 200 nM

N#CCC1(n2cc(-c3ncnc4[nH]ccc34)cn2)CN(C2CCN(C(=O)c3ccnc(C(F)(F)F)c3F)CC2)C1 [Cpd B, {1-{1-[3-fluoro-2-(trifluoromethyl)isonicotinoyl]piperidin-4-yl}-3[4-(7H-pyrrolo[2,3-d]pyrimidin-4-yl)-1H-pyrazol-1-yl]azetidin-3-yl}acetonitrile]
AREG normalized expression MFI [1]: 737.85 ± 22.1
CCL17 normalized expression MFI [1]: 3.37 ± 0.54
CCL18 normalized expression MFI [1]: 2.12 ± 0.32
FLG normalized expression MFI [1]: 71.57 ± 9.14
IL6 normalized expression MFI [1]: 130.24 ± 3.84
IL8 normalized expression MFI [1]: 381.74 ± 10.25
IL17A normalized expression MFI [1]: 0.88 ± 0.13
IL22 normalized expression MFI [1]: 1.21 ± 0.24
IL23A normalized expression MFI [1]: 43.92 ± 1.89
IL31 normalized expression MFI [1]: 1.33 ± 0.33
ILIA normalized expression MFI [1]: 1288.02 ± 20
IYK2 normalized expression MFI [1]: 292.92 ± 7.99
JAK1 normalized expression MFI [1]: 216.23 ± 6.41
JAK2 normalized expression MFI [1]: 109.39 ± 2.8
JAK3 normalized expression MFI [1]: 0.84 ± 0.12
LOR normalized expression MFI [1]: 43.2 ± 14.11
S100A7 normalized expression MFI [1]: 5.45 ± 1.02
S100A12 normalized expression MFI [1]: 1.21 ± 0.16
SERPINB3 normalized expression MFI [1]: 3.16 ± 0.43
SERPINB4 normalized expression MFI [1]: 4.23 ± 0.7
STAT1 normalized expression MFI [1]: 2861.37 ± 204.56
STAT3 normalized expression MFI [1]: 1466.73 ± 66.75
STAT4 normalized expression MFI [1]: 6 ± 0.46
STAT5A normalized expression MFI [1]: 23.69 ± 1.63
STAT5B normalized expression MFI [1]: 40.74 ± 2.3
STAT6 normalized expression MFI [1]: 1004.82 ± 23.76
TNF normalized expression MFI [1]: 28.04 ± 1.24
VEGFA normalized expression MFI [1]: 553.23 ± 11.38
AREG normalized expression MFI [2]: 701.57 ± 12.75
CCL17 normalized expression MFI [2]: 3.06 ± 0.34
CCL18 normalized expression MFI [2]: 2.2 ± 0.35
FLG normalized expression MFI [2]: 74.31 ± 8.77
IL6 normalized expression MFI [2]: 122.69 ± 4.36
IL8 normalized expression MFI [2]: 376.41 ± 13.16
IL17A normalized expression MFI [2]: 0.92 ± 0.14
IL22 normalized expression MFI [2]: 1.15 ± 0.18
IL23A normalized expression MFI [2]: 45.85 ± 2.3
IL31 normalized expression MFI [2]: 1.22 ± 0.29
ILIA normalized expression MFI [2]: 1258.76 ± 23.63
IYK2 normalized expression MFI [2]: 287.31 ± 11.08
JAK1 normalized expression MFI [2]: 210.42 ± 10.89
JAK2 normalized expression MFI [2]: 101 ± 2.26
JAK3 normalized expression MFI [2]: 0.83 ± 0.15
LOR normalized expression MFI [2]: 43.96 ± 15.87
S100A7 normalized expression MFI [2]: 7.08 ± 1.99
S100A12 normalized expression MFI [2]: 1.04 ± 0.15
SERPINB3 normalized expression MFI [2]: 2.3 ± 0.34
SERPINB4 normalized expression MFI [2]: 3.76 ± 0.66
STAT1 normalized expression MFI [2]: 2855.28 ± 166.89
STAT3 normalized expression MFI [2]: 1437.28 ± 60.69
STAT4 normalized expression MFI [2]: 6.22 ± 0.42
STAT5A normalized expression MFI [2]: 22.32 ± 2.16
STAT5B normalized expression MFI [2]: 42.9 ± 2.44
STAT6 normalized expression MFI [2]: 990.05 ± 21.06
TNF normalized expression MFI [2]: 28.66 ± 2.58
VEGFA normalized expression MFI [2]: 545.93 ± 9.71
AREG normalized expression MFI [3]: 731.24 ± 25.4
CCL17 normalized expression MFI [3]: 2.87 ± 0.33
CCL18 normalized expression MFI [3]: 2.01 ± 0.44
FLG normalized expression MFI [3]: 74.99 ± 8.16
IL6 normalized expression MFI [3]: 111.07 ± 4.74
IL8 normalized expression MFI [3]: 387.33 ± 19.5
IL17A normalized expression MFI [3]: 0.85 ± 0.15
IL22 normalized expression MFI [3]: 1 ± 0.17
IL23A normalized expression MFI [3]: 53.05 ± 3.22
IL31 normalized expression MFI [3]: 1.04 ± 0.31
ILIA normalized expression MFI [3]: 1162.35 ± 23.34
IYK2 normalized expression MFI [3]: 284.15 ± 9.62
JAK1 normalized expression MFI [3]: 205.03 ± 11.49
JAK2 normalized expression MFI [3]: 94.5 ± 2.65
JAK3 normalized expression MFI [3]: 0.92 ± 0.13
LOR normalized expression MFI [3]: 31.4 ± 10.44
S100A7 normalized expression MFI [3]: 3.83 ± 1.02
S100A12 normalized expression MFI [3]: 1 ± 0.17
SERPINB3 normalized expression MFI [3]: 2.2 ± 0.35
SERPINB4 normalized expression MFI [3]: 2.87 ± 0.48
STAT1 normalized expression MFI [3]: 2783.68 ± 179.19
STAT3 normalized expression MFI [3]: 1373.34 ± 55.51
STAT4 normalized expression MFI [3]: 6.21 ± 0.48
STAT5A normalized expression MFI [3]: 20.87 ± 2.1
STAT5B normalized expression MFI [3]: 40.75 ± 2.41
STAT6 normalized expression MFI [3]: 987.64 ± 15.75
TNF normalized expression MFI [3]: 29.5 ± 2.82
VEGFA normalized expression MFI [3]: 524.82 ± 13.65
AREG normalized expression MFI [4]: 730.41 ± 24.58
CCL17 normalized expression MFI [4]: 3.13 ± 0.48
CCL18 normalized expression MFI [4]: 1.68 ± 0.32
FLG normalized expression MFI [4]: 87.37 ± 10.99
IL6 normalized expression MFI [4]: 93.03 ± 3.25
IL8 normalized expression MFI [4]: 377.69 ± 20.45
IL17A normalized expression MFI [4]: 0.91 ± 0.17
IL22 normalized expression MFI [4]: 1.01 ± 0.19
IL23A normalized expression MFI [4]: 59.53 ± 3.83
IL31 normalized expression MFI [4]: 1.14 ± 0.32
ILIA normalized expression MFI [4]: 1126.94 ± 26.22
IYK2 normalized expression MFI [4]: 277.52 ± 8.67
JAK1 normalized expression MFI [4]: 195.97 ± 10.45
JAK2 normalized expression MFI [4]: 89.16 ± 3.43
JAK3 normalized expression MFI [4]: 0.79 ± 0.15
LOR normalized expression MFI [4]: 38.46 ± 14.1
S100A7 normalized expression MFI [4]: 5.73 ± 1.59
S100A12 normalized expression MFI [4]: 1.14 ± 0.16
SERPINB3 normalized expression MFI [4]: 2.21 ± 0.44
SERPINB4 normalized expression MFI [4]: 3.19 ± 0.7
STAT1 normalized expression MFI [4]: 2850.04 ± 177.51
STAT3 normalized expression MFI [4]: 1400.77 ± 58.44
STAT4 normalized expression MFI [4]: 6.27 ± 0.56
STAT5A normalized expression MFI [4]: 19.2 ± 1.94
STAT5B normalized expression MFI [4]: 41 ± 3.46
STAT6 normalized expression MFI [4]: 985.17 ± 29.31
TNF normalized expression MFI [4]: 28.31 ± 2.97
VEGFA normalized expression MFI [4]: 516.11 ± 14.7
AREG normalized expression MFI [5]: 260.61 ± 14.67
CCL17 normalized expression MFI [5]: 1.56 ± 0.38
CCL18 normalized expression MFI [5]: 1.49 ± 0.37
FLG normalized expression MFI [5]: 256.93 ± 36.45
IL6 normalized expression MFI [5]: 4.7 ± 0.32
IL8 normalized expression MFI [5]: 61.71 ± 4.86
IL17A normalized expression MFI [5]: 0.46 ± 0.1
IL22 normalized expression MFI [5]: 0.61 ± 0.13
IL23A normalized expression MFI [5]: 11.41 ± 1.43
IL31 normalized expression MFI [5]: 0.72 ± 0.18
ILIA normalized expression MFI [5]: 92.67 ± 5.54
IYK2 normalized expression MFI [5]: 217.28 ± 14.28
JAK1 normalized expression MFI [5]: 177.97 ± 14.91
JAK2 normalized expression MFI [5]: 25.21 ± 1.12
JAK3 normalized expression MFI [5]: 0.68 ± 0.17
LOR normalized expression MFI [5]: 23.78 ± 7.16
S100A7 normalized expression MFI [5]: 4.94 ± 1.59
S100A12 normalized expression MFI [5]: 0.8 ± 0.13
SERPINB3 normalized expression MFI [5]: 2.25 ± 0.49
SERPINB4 normalized expression MFI [5]: 3.39 ± 0.89
STAT1 normalized expression MFI [5]: 529.16 ± 21.86
STAT3 normalized expression MFI [5]: 732.19 ± 23.03
STAT4 normalized expression MFI [5]: 4.28 ± 0.61
STAT5A normalized expression MFI [5]: 1.75 ± 0.44
STAT5B normalized expression MFI [5]: 58.85 ± 6.21
STAT6 normalized expression MFI [5]: 740.11 ± 34.98
TNF normalized expression MFI [5]: 2.58 ± 0.57
VEGFA normalized expression MFI [5]: 211.13 ± 12.18
